Test results from US8658661B2, “Oxadiazole inhibitors of leukotriene production” (Boehringer Ingelheim International GmbH, priority 2010, dated 2014).

Experiments:
[1] = target: T1, recombinant human FLAP protein (Homo sapiens, UniProt P20292); assay: FLAP binding assay (SPA, displacement of [125I]L-691,831); conditions: membranes of sf9 cells expressing recombinant human FLAP; [125I]L-691,831 probe; read-out: FLAP binding IC50
T1 construct: made in house; host or cells: Sf9 insect cells (100,000×g membrane pellet used)
T1 sequence (P20292 1-161): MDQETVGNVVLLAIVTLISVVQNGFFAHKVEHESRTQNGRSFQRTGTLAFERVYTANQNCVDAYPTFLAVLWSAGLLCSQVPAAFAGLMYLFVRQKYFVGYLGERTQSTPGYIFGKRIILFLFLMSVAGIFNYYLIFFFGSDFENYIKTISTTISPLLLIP
Outline: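 Membranes from sf9 cells expressing human FLAP in pH 7.5 Tris buffer (MgCl2, EDTA, PMSF). Non-specific binding defined with 10 μM cold L-691,831.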

[2] = test system: synthesis of LTB4 in human whole blood; assay: Human whole blood assay (inhibition of LTB4 synthesis, calcimycin stimulated); format: cell-based; conditions: heparinized human whole blood, calcimycin 20 μM, plasma LTB4
Outline: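 Heparinized human whole blood preincubated with compound 15 min at 37 °C, then stimulated with calcimycin (20 μM final) for 30 min at 37 °C. Plasma LTB4 measured after low-speed centrifugation by antibody-based homogeneous time-resolved fluorescence.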

| Compound | IC50 [1] | IC50 [2] |
| --- | --- | --- |
| CC(C)C(C)(c1ccc(-c2cnc(N)nc2)cc1)c1noc(C2CCN(C(=O)OC(C)(C)C)CC2)n1 (stereo not drawn) [Example 109, 4-(3-{1-[4-(2-Amino-pyrimidin-5-yl)-phenyl]-1,2-dimethyl-propyl}-1,2,4-oxadiazol-5-yl)-piperidine-1-carboxylic acid tert-butyl ester] | 0.046 µM | 1.5 µM |
| CC(C)C(C)(c1ccc(-c2cnc(N)nc2)cc1)c1noc(C2CCNCC2)n1 (stereo not drawn) [Example 110, 5-(4-{3-methyl-2-[5-(piperidin-4-yl)-1,2,4-oxadiazol-3-yl]butan-2-yl}phenyl)pyrimidin-2-amine] | 0.19 µM | 2.8 µM |
| CC(C)C(C)(c1ccc(-c2cnc(N)nc2)cc1)c1noc(C2CCCN(C(=O)OC(C)(C)C)C2)n1 (stereo not drawn) [Example 111, tert-butyl 3-(3-{2-[4-(2-aminopyrimidin-5-yl)phenyl]-3-methylbutan-2-yl}-1,2,4-oxadiazol-5-yl)piperidine-1-carboxylate] | 0.015 µM | 2.9 µM |
| CC(C)C(C)(c1ccc(-c2cnc(N)nc2)cc1)c1noc(C2CCCCN2C(=O)OC(C)(C)C)n1 (stereo not drawn) [Example 112, tert-butyl 2-(3-{2-[4-(2-aminopyrimidin-5-yl)phenyl]-3-methylbutan-2-yl}-1,2,4-oxadiazol-5-yl)piperidine-1-carboxylate] | 0.19 µM | > 5 µM |
| CC(C)C(C)(c1ccc(-c2cnc(N)nc2)cc1)c1noc(C2CCCNC2)n1 (stereo not drawn) [Example 113, 5-(4-{3-methyl-2-[5-(piperidin-3-yl)-1,2,4-oxadiazol-3-yl]butan-2-yl}phenyl)pyrimidin-2-amine] | 0.066 µM | 3.1 µM |
| CC(C)C(C)(c1ccc(-c2cnc(N)nc2)cc1)c1noc(C2CCCCN2)n1 (stereo not drawn) [Example 114, 5-(4-{3-methyl-2-[5-(piperidin-2-yl)-1,2,4-oxadiazol-3-yl]butan-2-yl}phenyl)pyrimidin-2-amine] | 0.021 µM | 1.1 µM |
| CC(C)C(C)(c1ccc(-c2cnc(N)nc2)cc1)c1noc(C2CCCCC2)n1 (stereo not drawn) [Example 119, 5-{4-[2-(5-cyclohexyl-1,2,4-oxadiazol-3-yl)-3-methylbutan-2-yl]phenyl}pyrimidin-2-amine] | 0.0092 µM | 0.9 µM |
| CC(C)C(C)(c1ccc(-c2cnc(N)nc2)cc1)c1noc(C2(C)CCCCC2)n1 (stereo not drawn) [Example 120, 5-(4-{3-methyl-2-[5-(1-methylcyclohexyl)-1,2,4-oxadiazol-3-yl]butan-2-yl}phenyl)pyrimidin-2-amine] | 0.04 µM | 2.1 µM |
| Cn1cc(-c2nc([C@@](C)(c3ccc(-c4cnc(N)nc4)cc3)C3CCC3)no2)cn1 [Example 121, 5-(4-{(1R)-1-cyclobutyl-1-[5-(1-methyl-1H-pyrazol-4-yl)-1,2,4-oxadiazol-3-yl]ethyl}phenyl)pyrimidin-2-amine] | 0.0026 µM | 0.091 µM |
| Cn1cc(-c2nc([C@](C)(c3ccc(-c4cnc(N)nc4)cc3)C3CCC3)no2)cn1 [Example 122, 5-(4-{(1S)-1-cyclobutyl-1-[5-(1-methyl-1H-pyrazol-4-yl)-1,2,4-oxadiazol-3-yl]ethyl}phenyl)pyrimidin-2-amine] | 0.14 µM | 3.2 µM |
| CC(C)C(C)(c1ccc(-c2cnc(N)nc2)cc1)c1noc(-c2ccc(N3CCOCC3)nc2)n1 (stereo not drawn) [Example 135, 5-[4-(3-methyl-2-{5-[6-(morpholin-4-yl)pyridin-3-yl]-1,2,4-oxadiazol-3-yl}butan-2-yl)phenyl]pyrimidin-2-amine] | 0.0014 µM | 0.25 µM |
| CC(C)C(C)(c1ccc(-c2cnc(N)nc2)cc1)c1noc(C2CCOCC2)n1 (stereo not drawn) [Example 138, 5-(4-{3-methyl-2-[5-(tetrahydro-2H-pyran-4-yl)-1,2,4-oxadiazol-3-yl]butan-2-yl}phenyl)pyrimidin-2-amine] | 0.015 µM | 0.76 µM |
| CNC(=O)Cn1cc(-c2nc(C(C)(c3ccc(-c4cnc(N)nc4)cc3)C(C)C)no2)cn1 (stereo not drawn) [Example 142, 2-[4-(3-{2-[4-(2-aminopyrimidin-5-yl)phenyl]-3-methylbutan-2-yl}-1,2,4-oxadiazol-5-yl)-1H-pyrazol-1-yl]-N-methylacetamide] | 0.0011 µM | 0.059 µM |

The remaining lines, values ahead:

| IC50 [1] | IC50 [2] | Compound |
| --- | --- | --- |
| 0.031 µM | 1.2 µM | CC(C)C(C)(c1ccc(-c2cnc(N)nc2)cc1)c1noc(C2(C)CCCC2)n1 (stereo not drawn) [Example 117, 5-(4-{3-methyl-2-[5-(1-methylcyclopentyl)-1,2,4-oxadiazol-3-yl]butan-2-yl}phenyl)pyrimidin-2-amine] |
| 0.0099 µM | 0.82 µM | CC(C)C(C)(c1ccc(-c2cnc(N)nc2)cc1)c1noc(C2(C)CC2)n1 (stereo not drawn) [Example 118, 5-(4-{3-methyl-2-[5-(1-methylcyclopropyl)-1,2,4-oxadiazol-3-yl]butan-2-yl}phenyl)pyrimidin-2-amine] |
| 0.0017 µM | 0.042 µM | COCCNc1cnc(-c2nc([C@@](C)(c3ccc(-c4cnc(N)nc4)cc3)C(C)C)no2)cn1 [Example 123, 5-{4-[(2R)-2-(5-{5-[(2-methoxyethyl)amino]pyrazin-2-yl}-1,2,4-oxadiazol-3-yl)-3-methylbutan-2-yl]phenyl}pyrimidin-2-amine] |
| 0.0023 µM | 0.031 µM | COCCNc1cnc(-c2nc([C@](C)(c3ccc(-c4cnc(N)nc4)cc3)C(C)C)no2)cn1 [Example 124, 5-{4-[(2S)-2-(5-{5-[(2-methoxyethyl)amino]pyrazin-2-yl} 1,2,4-oxadiazol-3-yl)-3-methylbutan-2-yl]phenyl}pyrimidin-2-amine] |
| 0.0015 µM | 0.29 µM | CC(C)C(C)(c1ccc(-c2cnc(N)nc2)cc1)c1noc(-c2ccc(C(N)=O)nc2)n1 (stereo not drawn) [Example 125, 5-(3-{2-[4-(2-aminopyrimidin-5-yl)phenyl]-3-methylbutan-2-yl}-1,2,4-oxadiazol-5-yl)pyridine-2-carboxamide] |
| 0.0046 µM | 0.26 µM | CC(C)C(C)(c1ccc(-c2cnc(N)nc2)cc1)c1noc(-c2c[nH]cn2)n1 (stereo not drawn) [Example 126, 5-(4-{2-[5-(1H-imidazol-4-yl)-1,2,4-oxadiazol-3-yl]-3-methylbutan-2-yl}phenyl)pyrimidin-2-amine] |
| 0.0029 µM | 0.65 µM | CC(C)C(C)(c1ccc(-c2cnc(N)nc2)cc1)c1noc(-c2cncc3ccccc23)n1 (stereo not drawn) [Example 127, 5-(4-{2-[5-(isoquinolin-4-yl)-1,2,4-oxadiazol-3-yl]-3-methylbutan-2-yl}phenyl)pyrimidin-2-amine] |
| 0.0016 µM | 0.24 µM | CC(C)C(C)(c1ccc(-c2cnc(N)nc2)cc1)c1noc(-c2ccc(C#N)nc2)n1 (stereo not drawn) [Example 128, 5-(3-{2-[4-(2-aminopyrimidin-5-yl)phenyl]-3-methylbutan-2-yl}-1,2,4-oxadiazol-5-yl)pyridine-2-carbonitrile] |
| 0.002 µM | 0.18 µM | CC(C)C(C)(c1ccc(-c2cnc(N)nc2)cc1)c1noc(-c2cncnc2)n1 (stereo not drawn) [Example 129, 5-(4-{3-methyl-2-[5-(pyrimidin-5-yl)-1,2,4-oxadiazol-3-yl]butan-2-yl}phenyl)pyrimidin-2-amine] |
| 0.0014 µM | 0.18 µM | CC(C)C(C)(c1ccc(-c2cnc(N)nc2)cc1)c1noc(-c2cncs2)n1 (stereo not drawn) [Example 130, 5-(4-{3-methyl-2-[5-(1,3-thiazol-5-yl)-1,2,4-oxadiazol-3-yl]butan-2-yl}phenyl)pyrimidin-2-amine] |
| 0.0028 µM | 0.33 µM | CC(C)C(C)(c1ccc(-c2cnc(N)nc2)cc1)c1noc(-c2cnco2)n1 (stereo not drawn) [Example 132, 5-(4-{3-methyl-2-[5-(1,3-oxazol-5-yl)-1,2,4-oxadiazol-3-yl]butan-2-yl}phenyl)pyrimidin-2-amine] |
| 0.0016 µM | 0.19 µM | Cc1n[nH]c(C)c1-c1nc(C(C)(c2ccc(-c3cnc(N)nc3)cc2)C(C)C)no1 (stereo not drawn) [Example 133, 5-(4-{2-[5-(3,5-dimethyl-1H-pyrazol-4-yl)-1,2,4-oxadiazol-3-yl]-3-methylbutan-2-yl}phenyl)pyrimidin-2-amine] |
| 0.0083 µM | 0.19 µM | CCNc1nc(C(C)(c2ccc(-c3cnc(N)nc3)cc2)C(C)C)no1 (stereo not drawn) [Example 134, 5-(4-{2-[5-(ethylamino)-1,2,4-oxadiazol-3-yl]-3-methylbutan-2-yl}phenyl)pyrimidin-2-amine] |
| 0.0054 µM | 0.32 µM | CC(C)C(C)(c1ccc(-c2cnc(N)nc2)cc1)c1noc(-c2ccc(C(F)(F)F)nc2)n1 (stereo not drawn) [Example 136, 5-[4-(3-methyl-2-{5-[6-(trifluoromethyl)pyridin-3-yl]-1,2,4-oxadiazol-3-yl}butan-2-yl)phenyl]pyrimidin-2-amine] |
| 0.0028 µM | 0.077 µM | CC(C)C(C)(c1ccc(-c2cnc(N)nc2)cc1)c1noc(-c2cnccn2)n1 (stereo not drawn) [Example 137, 5-(4-{3-methyl-2-[5-(pyrazin-2-yl)-1,2,4-oxadiazol-3-yl]butan-2-yl}phenyl)pyrimidin-2-amine] |
| 0.0041 µM | 0.71 µM | Cc1ncoc1-c1nc(C(C)(c2ccc(-c3cnc(N)nc3)cc2)C(C)C)no1 (stereo not drawn) [Example 140, 5-(4-{3-methyl-2-[5-(4-methyl-1,3-oxazol-5-yl)-1,2,4-oxadiazol-3-yl]butan-2-yl}phenyl)pyrimidin-2-amine] |
| 0.0015 µM | 0.53 µM | Cc1ncsc1-c1nc(C(C)(c2ccc(-c3cnc(N)nc3)cc2)C(C)C)no1 (stereo not drawn) [Example 141, 5-(4-{3-methyl-2-[5-(4-methyl-1,3-thiazol-5-yl)-1,2,4-oxadiazol-3-yl]butan-2-yl}phenyl)pyrimidin-2-amine] |
